Data published in patent US12728123B2, “Product” (Sesh Products Inc., priority 2012, dated 2026).

Details: at a pH of about 8.8

With `CN1CCCC1c1cccnc1` (stereo not shown) [nicotine] the “nicotine in the nonprotonated form” value was “approximately 90%”.
